pIC50: −log10 of the molar value.
What was measured:
[1] = test system: primary cells from patient samples; assay: Cell viability assay (MTS) of primary patient cells with inhibitor dose gradients; format: cell-based, human; conditions: cells from CMML patient 07-079, three days
HMC1.1 cells = assay: MTS proliferation assay with small-molecule kinase inhibitors, HMC1.1 cells; format: cell-based, human; conditions: for pIC50: 72 hours, MTS assay
Procedure: (§1) K562 cells were obtained from American Type Culture Collection (Manassas, Va.). CMK and HEL cells were obtained from the German National Resource Centre for Biological Material (DSMZ). […] For proliferation assays, cells were incubated for 72 hours in the presence of JAK Inhibitor I, JAK3 inhibitor III, AG-490, PP2, or Src Kinase Inhibitor I (EMD BIOSCIENCES®, San Diego, Calif.), and the number of viable cells was determined with the […] 96® AQueous One solution cell proliferation assay (PROMEGA®, Madison, Wis.). For HMC1.1 cell stimulation, cells were serum starved overnight in RPMI supplemented with 0.1% bovine serum albumin, L-glutamine, and penicillin/streptomycin. The following day, cells were stimulated for five minutes with 100 ng/ml recombinant stem cell factor (Peprotech, Rocky Hill, N.J.).
(§2) For tyrosine kinase siRNA library knockdown experiments, a Student's t test was carried out for each well in comparison to both single and pooled non-specific siRNA controls. The mean of the two-tailed p-value was determined for consideration of significance and data points with p-value less than 0.05 and mean value less than 70% of non-specific controls were considered significant. For cell proliferation assays, a Student's t test was carried out for each dose point comparing HMC1.1 to K562 cell viability.

[2] = test system: BA/F3 cells expressing MPL W515L; assay: Proliferation assay, factor-independent BA/F3 cells expressing MPL W515L; format: cell-based; conditions: three days
Procedure: (§3) 96 AQueous One solution cell proliferation assay (PROMEGA®). […] Total viable cells were determined every day for 1 week using PI exclusion on a Guava cell counter (GUAVA TECHNOLOGIES®). […] Ten days later, colonies were counted manually or using a GELCOUNT® automated colony counter (OXFORD OPTRONIX®, Oxford, UK).
(§4) MPL was then cloned into a Gateway compatible version of MSCV-IRES-GFP (MIG) by performing an LR recombination reaction. […] One milliliter of viral supernatant was mixed with polybrene (5 mg/ml), HEPES (7.5 mM), and 10^6 BA/F3 cells and placed in a centrifuge at 2500 RPM for 90 minutes at 30° C.

HEL cells = assay: MTS proliferation assay with kinase inhibitors, HEL cells; format: cell-based; conditions: HEL cells (JAK2 V617F), 72 hours
Procedure: as §1, §3

[3] = test system: primary cells from patient samples; assay: Colony assay of primary patient cells in methocult; format: cell-based, human; conditions: ten days
Procedure: For determination of factor-independent growth, parental BA/F3 cells as well as BA/F3 cells expressing […], or W515L were washed three times and 1 million cells were seeded into triplicate wells of a 6-well plate in R10. Total viable cells were determined every day for 1 week using PI exclusion on a Guava cell counter (GUAVA TECHNOLOGIES®). For colony assays, 200,000 primary cells from patient samples were incubated in the presence of dose gradients of AG490, SU11248, or PTK787 in methocult containing IL-3, GM-CSF, and SCF ([…] TECHNOLOGIES®). Ten days later, colonies were counted manually or using a GELCOUNT® automated colony counter (OXFORD OPTRONIX®, Oxford, UK). For siRNA functional screens on patient samples, a Student's t test was carried out for each well in comparison to both single and pooled non-specific siRNA controls. The mean of the two-tailed p-value was determined for consideration of significance. […] For cell proliferation, cell viability, and colony assays, a Student's t test was carried out for each dose or time point compared with the relevant control cell line or the no drug control.

[4] = test system: BA/F3 cells expressing MPL 1886InsGG; assay: Proliferation assay, factor-independent BA/F3 cells expressing MPL 1886InsGG; format: cell-based; conditions: factor-independent BA/F3 MPL 1886InsGG, three days
Procedure: as §3, §4

[5] = test system: Patient 07-079, ASM with associated CMML; assay: Midostaurin treatment of patient 07-079; format: in vivo, human; conditions: patient 07-079, midostaurin 50 mg bid, briefly in combination with hydroxyurea
Procedure: White blood cell counts were monitored over 9 days. Normal white blood cell counts range from 4−12×10^3 per ml. […] Cells were then stimulated for 15 minutes with thrombopoietin (10 ng/ml) and cell lysates were subjected to immunoblot analysis for phospho or total-JAK2 as well as β-actin. […] Cell proliferation was determined after three days. Values represent the percent mean (normalized to untreated control wells)±s.e.m. (n=3).

K562 cells = assay: MTS proliferation assay with small-molecule kinase inhibitors, K562 control cells; format: cell-based; conditions: concentrations up to and including 10 μM
Procedure: as §1, §2

[6] = molecular target: MPL^1886InsGG (thrombopoietin receptor with two base-pair GG insertion in exon 12) (human) (UniProt P40238); assay: cell-based or functional assay; conditions: scale: fold lower dose of thrombopoietin than MPL^WT

`N#C/C(=C\c1ccc(O)c(O)c1)C(=O)NCc1ccccc1` [AG-490] was tested, and the “sensitivity in cell viability assay” value [1] was “Strong sensitivity”, the pIC50 (HMC1.1 cells) was < 4.30 and the sensitivity to inhibitor [2] was “strong sensitivity”. The pIC50 (HEL cells) was 4.35, the “sensitivity in colony assay” value ([3]; cells from CMML patient 07-079, methocult) was “Strong sensitivity” and the sensitivity to inhibitor [4] was “strong sensitivity”.
For `CC(C)(C)n1nc(-c2ccc(Cl)cc2)c2c(N)ncnc21` [PP2], the pIC50 (HMC1.1 cells) was 5.82.
`Clc1ccc(Nc2nnc(Cc3ccncc3)c3ccccc23)cc1` [PTK787] was tested, and the colony formation ([3]; cells from AML patient 07-008, methocult with IL-3, GM-CSF, SCF) was “blocked by each drug at low nanomolar concentrations”.
In the case of `COc1cc2ncnc(Nc3ccc(Oc4ccccc4)cc3)c2cc1OC` [SRC inhibitor I], the pIC50 (HMC1.1 cells) was 5.30.
`CO[C@@H]1[C@H](N(C)C(=O)c2ccccc2)C[C@H]2O[C@]1(C)n1c3ccccc3c3c4c(c5c6ccccc6n2c5c31)C(=O)NC4` [midostaurin] was tested, and the “period to normalization of WBC counts” value [5] was 5 days.
With JAK inhibitor I the pIC50 (HMC1.1 cells) was 5.30, the “viability in combination with PP2” value (HMC1.1 cells; JAK inhibitor I dose range plus 1.5 μM PP2, compared with JAK inhibitor alone) was “lower viability readings at all dose points” and the “reduction of viability and proliferation” value (HMC1.1 cells; maximal reduction despite increasing concentrations) was ~50%. The sensitivity to inhibitor (K562 cells) was “resistant”.
“recombinant thrombopoietin (Peprotech) (ligand)” gave a phosphorylation of JAK2, STAT3, STAT5, ERK and AKT (immunoblot) after thrombopoietin stimulation of BA/F3 cells [6] of 10.

From patent US20090312194A1, “SELECTION OF PERSONALIZED CANCER THERAPY REGIMENS USING INTERFERING RNA FUNCTIONAL SCREENING” (OREGON HEALTH & SCIENCE UNIVERSITY, priority 2008, published 2009)
